From ChEMBL document CHEMBL1201862, “PubChem BioAssay data set” (2004) come the findings set out here.

Test systems include MDA-MB-231; Malme-3M; UO-31; DU-145; SNB-75; U-251; TK-10; SK-MEL-2; MCF7; LOX IMVI; 786-0; SF-539; PC-3; Hs-578T; KM12; SF-268; SW-620; RPMI-8226; UACC-257; MOLT-4.
Common to all, as to experiment: growth of human tumour cells (NCI), 48 h

Molecules are shown by their SMILES.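 Cultured in 96-well plates, cells were exposed to test compound for 48 hours across five concentrations. GI50 is the concentration that inhibits growth by half.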 Active and inactive are the calls of the source. Cut-off read from the data, not from the text of the source: active = GI50 up to about 1.1 µM and inactive = higher.

For `CC(=C\c1ccccc1)/C=C(\C#N)C(N)=O`, the GI50 in the experiment with MDA-MB-231, in the experiment on Malme-3M, in the experiment with UO-31, in the experiment with DU-145, in the experiment on SNB-75 and in the experiment with U-251 was > 10 µM (inactive) in each case. Further, the GI50 in the experiment on TK-10, in the experiment with SK-MEL-2, in the experiment on MCF7, in the experiment with LOX IMVI, with 786-0 and in the experiment on SF-539 was > 10 µM (inactive) throughout. Further, the GI50 in the experiment on PC-3, in the experiment with Hs-578T, with KM12, with SF-268 and in the experiment on SW-620 was > 10 µM (inactive) each time.

With `Cc1cc(=O)oc2c3c(ccc12)OC(c1ccc(Br)cc1)CC3=O` (stereo not drawn), the GI50 was 7.35 µM (inactive) in the experiment on MDA-MB-231; 6.43 µM (inactive) in the experiment with Malme-3M; 10.3 µM (inactive) with UO-31; 3.02 µM (inactive) in the experiment on SNB-75; 4.04 µM (inactive) in the experiment with RPMI-8226; 5.9 µM (inactive) in the experiment with U-251. In addition, the GI50 was 13.7 µM (inactive) in the experiment with TK-10; 11.3 µM (inactive) with SK-MEL-2; 13.1 µM (inactive) with UACC-257; 4.27 µM (inactive) in the experiment on MCF7; 1.79 µM (inactive) in the experiment with MOLT-4; 2.98 µM (inactive) with LOX IMVI. The GI50 in the experiment on 786-0 is 5.48 µM (inactive); in the experiment with SF-539 it was 9.98 µM (inactive); with PC-3, 6.25 µM (inactive); in the experiment on Hs-578T, 2.56 µM (inactive); with KM12 it was 13.9 µM (inactive); with SF-268 it was 10.2 µM (inactive). Also, the GI50 with SW-620 was 4.2 µM (inactive).

`COc1ccc(-c2nc3ncccn3c2-c2ccc(SC)cc2)cc1`: the GI50 with MDA-MB-231 was 4.24 µM (inactive); in the experiment with UO-31, 4.46 µM (inactive); in the experiment with SNB-75, 5.96 µM (inactive); in the experiment on RPMI-8226, 2.48 µM (inactive); with U-251, 2.44 µM (inactive); with SK-MEL-2 it was 1.32 µM (inactive). Moreover, the GI50 is > 100 µM (inactive) with UACC-257; 3.7 µM (inactive) in the experiment on MOLT-4; 2.14 µM (inactive) with LOX IMVI; 4.59 µM (inactive) in the experiment with 786-0; 1.83 µM (inactive) in the experiment on SF-539; 3.13 µM (inactive) in the experiment with PC-3. In addition, the GI50 was 1.74 µM (inactive) with Hs-578T, 0.453 µM (active) with KM12, 0.418 µM (active) with SF-268 and 1.48 µM (inactive) with SW-620.

With `CC[C@@]1(O)C(=O)OCc2c1cc1n(c2=O)Cc2c-1nc1ccccc1c2/C=N\NC(=O)C(N)Cc1ccc(O)cc1` (stereo partly drawn), the GI50 with MDA-MB-231 was 15.8 µM (inactive); with Malme-3M, 1.35 µM (inactive); with UO-31, 0.619 µM (active); with DU-145 it was 0.331 µM (active); in the experiment with SNB-75 it was 0.415 µM (active); with RPMI-8226, 0.867 µM (active). The GI50 is 0.248 µM (active) in the experiment on U-251; > 31.6 µM (inactive) with TK-10; 2.45 µM (inactive) in the experiment on UACC-257; 0.367 µM (active) in the experiment with MCF7; 0.0658 µM (active) in the experiment with MOLT-4; 0.189 µM (active) with LOX IMVI. In addition, the GI50 in the experiment with 786-0 was 0.374 µM (active); with SF-539, 0.0731 µM (active); in the experiment on Hs-578T, 7.43 µM (inactive); in the experiment on KM12 it was 3.37 µM (inactive); in the experiment on SF-268, 0.202 µM (active); in the experiment with SW-620, 1.52 µM (inactive).

In the case of `COc1cccc2c1C(=O)c1c(O)c3c(c(O)c1C2=O)C[C@@](O)(C(C)=O)C[C@@H]3OC1OC(C)C(O)C(N)C1Br` (stereo partly drawn), the GI50 in the experiment with MDA-MB-231 is 0.233 µM (active); in the experiment on Malme-3M, 0.0769 µM (active); in the experiment with UO-31, 0.0953 µM (active); with DU-145 it was 0.0475 µM (active); in the experiment on SNB-75 it was 0.0029 µM (active); with RPMI-8226, 0.0156 µM (active). Also, the GI50 with U-251 was 0.0295 µM (active); in the experiment with TK-10 it was 0.158 µM (active); in the experiment on SK-MEL-2, 0.267 µM (active); in the experiment on UACC-257, 0.155 µM (active); in the experiment on MCF7, 0.00385 µM (active); in the experiment on MOLT-4, 0.001 µM (active). For the same compound, the GI50 is 0.0208 µM (active) in the experiment on LOX IMVI; 0.0404 µM (active) with 786-0; 0.0583 µM (active) with SF-539; 0.138 µM (active) in the experiment on PC-3; 0.14 µM (active) in the experiment on KM12; 0.101 µM (active) in the experiment with SF-268. For the same compound, the GI50 in the experiment on SW-620 was 0.0177 µM (active).

On to `CC(C)n1c(=O)c2nn3c(=O)n(C(C)C)c(=O)c3nn2c1=O`, for which the GI50 with MDA-MB-231, in the experiment on Malme-3M, in the experiment with DU-145, in the experiment on TK-10, in the experiment with SK-MEL-2 and in the experiment with UACC-257 was > 100 µM (inactive) throughout. Besides, the GI50 with MCF7, in the experiment on MOLT-4, with LOX IMVI, in the experiment with 786-0, with SF-539 and in the experiment with PC-3 was > 100 µM (inactive) in each case. Further, the GI50 in the experiment with Hs-578T, with KM12, in the experiment on SF-268 and with SW-620 was > 100 µM (inactive) each time.

As to `CN1CCN([C@H]2C[C@H]3[C@@H]4CC=C5C[C@@H](O)CC[C@]5(C)[C@H]4CC[C@]3(C)C2=O)CC1`, the GI50 in the experiment with MDA-MB-231 is > 100 µM (inactive); in the experiment with Malme-3M, > 100 µM (inactive); in the experiment on UO-31 it was > 100 µM (inactive); with SNB-75, > 100 µM (inactive); in the experiment on RPMI-8226 it was 91 µM (inactive); with U-251, > 100 µM (inactive). Moreover, the GI50 in the experiment on TK-10, in the experiment on SK-MEL-2, in the experiment with UACC-257, in the experiment on MCF7, with MOLT-4 and with LOX IMVI was > 100 µM (inactive) in each case. Moreover, the GI50 is > 100 µM (inactive) in the experiment on 786-0; 62.5 µM (inactive) with SF-539; > 100 µM (inactive) in the experiment on PC-3; > 100 µM (inactive) in the experiment on Hs-578T; > 100 µM (inactive) in the experiment on KM12; > 100 µM (inactive) with SF-268. For the same compound, the GI50 in the experiment with SW-620 was > 100 µM (inactive).

Regarding `CC(C)C1OC(=O)/C=C/C=C/C=C/C=C/C=C/CC(O)CC(O)CC(O)CC(O)CC(O)CC(O)CC(O)CC(O)/C=C/C1C` (stereo not drawn), the GI50 with MDA-MB-231, in the experiment on Malme-3M, with UO-31, with DU-145, in the experiment on SNB-75 and with RPMI-8226 was > 100 µM (inactive) each time. For the same compound, the GI50 in the experiment on U-251, in the experiment on TK-10, in the experiment on SK-MEL-2, in the experiment on UACC-257, with MCF7 and in the experiment with MOLT-4 was > 100 µM (inactive) in each case. The GI50 with LOX IMVI, with 786-0, with SF-539, in the experiment on PC-3, in the experiment with KM12 and in the experiment on SF-268 was > 100 µM (inactive) each time. The GI50 in the experiment with SW-620 was > 100 µM (inactive).

For the compound `O=C1C=C2CC[C@H]3[C@@H]4CC[C@H](Oc5c6ccccc6nc6ccccc56)[C@H]4CC[C@@H]3[C@H]2CC1`, the GI50 was 41.3 µM (inactive) in the experiment with MDA-MB-231; 87.7 µM (inactive) in the experiment with DU-145; 28.3 µM (inactive) in the experiment with SNB-75; 41.9 µM (inactive) in the experiment on U-251; 47.8 µM (inactive) with TK-10; 40 µM (inactive) with SK-MEL-2. The GI50 was 35.6 µM (inactive) in the experiment with UACC-257; 27.8 µM (inactive) in the experiment with LOX IMVI; 91.2 µM (inactive) in the experiment with 786-0; 52.2 µM (inactive) in the experiment on SF-539; 33.4 µM (inactive) in the experiment with PC-3; 26.8 µM (inactive) with Hs-578T. The GI50 in the experiment with KM12 is 39.6 µM (inactive); in the experiment on SF-268, 84.9 µM (inactive); in the experiment with SW-620, 51.8 µM (inactive).

As for `COC(=O)[C@H](Cc1ccccc1)NC(=O)[C@H](Cc1ccccc1)NC(=O)[C@@H]1CCCN1C(=O)N[C@H]1C2C=CC(C2)C1C(=O)N1CCC[C@H]1C(=O)N[C@@H](C)C(=O)N[C@H](C(=O)OC)C(C)C` (stereo partly drawn), the GI50 was 46.5 µM (inactive) in the experiment with MDA-MB-231; > 100 µM (inactive) in the experiment on Malme-3M; > 100 µM (inactive) in the experiment with UO-31; > 100 µM (inactive) with DU-145; > 100 µM (inactive) in the experiment on SNB-75; 70.3 µM (inactive) in the experiment on U-251. For the same compound, the GI50 is 65.5 µM (inactive) in the experiment on TK-10; > 100 µM (inactive) in the experiment with UACC-257; 56.9 µM (inactive) with MCF7; 29.4 µM (inactive) in the experiment on MOLT-4; 41.3 µM (inactive) in the experiment with LOX IMVI; > 100 µM (inactive) in the experiment with 786-0. Also, the GI50 is > 100 µM (inactive) in the experiment with PC-3; 59.6 µM (inactive) in the experiment on Hs-578T; > 100 µM (inactive) in the experiment with KM12; 94.2 µM (inactive) in the experiment with SF-268; 69.3 µM (inactive) with SW-620.

For `Cc1[nH]n(-c2nc3c(c(=O)[nH]2)CCCC3)c(=O)c1CCO`, the GI50 in the experiment with MDA-MB-231, in the experiment on Malme-3M, in the experiment on UO-31, in the experiment on DU-145, in the experiment on U-251 and in the experiment on TK-10 was > 100 µM (inactive) throughout. In addition, the GI50 in the experiment with SK-MEL-2, with UACC-257, in the experiment with MCF7, with MOLT-4, in the experiment on LOX IMVI and with 786-0 was > 100 µM (inactive) each time. For the same compound, the GI50 with SF-539, in the experiment with PC-3, in the experiment on Hs-578T, in the experiment with KM12, with SF-268 and in the experiment on SW-620 was > 100 µM (inactive) throughout.
